pIC50: −log10 of the molar value.
Biological target: LSD-1 enzyme (Homo sapiens (Human), UniProt O60341)
Assay: LANCE LSD1/KDM1A demethylase assay (LSD1 histone demethylase biochemical assay)
Details: 1 nM LSD-1 enzyme, 1 hour preincubation at 25° C., 0.4 μM Biotin-labeled Histone H3 peptide substrate
Description: LSD1 Histone Demethylase Biochemical Assay
LANCE LSD1/KDM1A demethylase assay-10 μL of 1 nM LSD-1 enzyme (ENZO BML-SE544-0050) in the assay buffer (50 mM Tris, pH 7.5, 0.01% Tween-20, 25 mM NaCl, 5 mM DTT) were preincubated for 1 hour at 25° C. with 0.8 μL compound/DMSO dotted in black 384 well polystyrene plates. […] Reactions were stopped by addition of 10 μL 1× LANCE Detection Buffer (PerkinElmer CR97-100) supplemented with 1.5 nM Eu-anti-unmodified H3K4 Antibody (PerkinElmer TRF0404), and 225 nM LANCE Ultra Streptavidin (PerkinElmer TRF102) along with 0.9 mM Tranylcypromine-HCl (Millipore 616431). After stopping the reactions plates were incubated for 30 minutes and read on a PHERAstar FS plate reader (BMG Labtech).

SMILES | pIC50
CN1CCC[C@@H](COc2nc(-c3ccc(C#N)cc3)c(-c3cc(F)c4c(c3)CCC4O)n3ccnc23)C1 (stereo partly drawn) [Example 88, 4-(5-(7-fluoro-1-hydroxy-2,3-dihydro-1H-inden-5-yl)-8-{[(3R)-1-methylpiperidin-3-yl]methoxy}imidazo[1,2-a]pyrazin-6-yl)benzonitrile] | ≥ 7.30
CN1C(=O)Cc2cc(-c3c(-c4ccc(C#N)cc4)nc(N4CCC(N(C)C)CC4)c4nccn34)ccc21 [Example 98, 4-[8-[4-(dimethylamino)piperidin-1-yl]-5-(1-methyl-2-oxo-2,3-dihydro-1H-indol-5-yl)imidazo[1,2-a]pyrazin-6-yl]benzonitrile] | ≥ 7.30
Cc1ccc(-c2c(-c3ccc(C#N)cc3)nc(CN3CC[C@@H](N(C)C)C3)c3nccn23)cc1 [Example 5, 4-[8-{[(3R)-3-(dimethylamino)pyrrolidin-1-yl]methyl}-5-(4-methylphenyl)imidazo[1,2-a]pyrazin-6-yl]benzonitrile] | ≥ 7.30
CN1CCN(c2ccc(-c3c(-c4ccc(C#N)cc4)nc(N4CCC(N(C)C)CC4)c4nccn34)cn2)C1=O [Example 100, 4-{8-[4-(dimethylamino)piperidin-1-yl]-5-[6-(3-methyl-2-oxoimidazolidin-1-yl)pyridin-3-yl]imidazo[1,2-a]pyrazin-6-yl}benzonitrile] | ≥ 7.30
CN1C(=O)CCc2cc(-c3c(-c4ccc(C#N)cc4)nc(N4CCC(N(C)C)CC4)c4nccn34)ccc21 [Example 102, 4-[8-[4-(dimethylamino)piperidin-1-yl]-5-(1-methyl-2-oxo-1,2,3,4-tetrahydroquinolin-6-yl)imidazo[1,2-a]pyrazin-6-yl]benzonitrile] | ≥ 7.30
Cc1ccc(-c2c(-c3ccc(C#N)cc3)nc(OC[C@@H]3CCNC3)c3nc(C(=O)NC4CC4)cn23)cc1 [Example 39, 6-(4-cyanophenyl)-N-cyclopropyl-5-(4-methylphenyl)-8-[(3R)-pyrrolidin-3-ylmethoxy]imidazol[1,2-a]pyrazine-2-carboxamide] | ≥ 7.30
CN(C)C1CCN(c2nc(-c3ccc(C#N)cc3)c(-c3ccc(N4CCCC4=O)nc3)n3ccnc23)CC1 [Example 57, 4-{8-[4-(dimethylamino)piperidin-1-yl]-5-[6-(2-oxopyrrolidin-1-yl)pyridin-3-yl]imidazo[1,2-a]pyrazin-6-yl}benzonitrile] | ≥ 7.30
CN(C)C1CCN(c2nc(-c3ccc(C#N)cc3)c(-c3cnc4c(c3)cc(CO)n4C)n3ccnc23)CC1 [Example 103, 4-{8-[4-(dimethylamino)piperidin-1-yl]-5-[2-(hydroxymethyl)-1-methyl-1H-pyrrolo[2,3-b]pyridin-5-yl]imidazo[1,2-a]pyrazin-6-yl}benzonitrile] | ≥ 7.30
CN1C(=O)COc2cc(-c3c(-c4ccc(C#N)cc4)nc(N4CCC(N(C)C)CC4)c4nccn34)cnc21 [Example 107, 4-[8-[4-(dimethylamino)piperidin-1-yl]-5-(4-methyl-3-oxo-3,4-dihydro-2H-pyrido[3,2-b][1,4]oxazin-7-yl)imidazo[1,2-a]pyrazin-6-yl]benzonitrile] | ≥ 7.30
CN1CCN(c2ccc(-c3c(-c4ccc(C#N)cc4)nc(N4CCC(N(C)C)CC4)c4nccn34)cn2)CC1=O [Example 109, 4-{8-[4-(dimethylamino)piperidin-1-yl]-5-[6-(4-methyl-3-oxopiperazin-1-yl)pyridin-3-yl]imidazo[1,2-a]pyrazin-6-yl}benzonitrile] | ≥ 7.30
CN1CCC[C@@H](COc2nc(-c3ccc(C#N)cc3)c(-c3cnc4c(ccn4C)c3)n3ccnc23)C1 [Example 53, 4-[8-{[(3R)-1-methylpiperidin-3-yl]methoxy}-5-(1-methyl-1H-pyrrolo[2,3-b]pyridin-5-yl)imidazo[1,2-a]pyrazin-6-yl]benzonitrile] | ≥ 7.30
CN(C)C1CCN(c2nc(-c3ccc(C#N)cc3)c(-c3ccc4c(c3)oc(=O)n4C)n3ccnc23)CC1 [Example 59, 4-[8-[4-(dimethylamino)piperidin-1-yl]-5-(3-methyl-2-oxo-2,3-dihydro-1,3-benzoxazol-6-yl)imidazo[1,2-a]pyrazin-6-yl]benzonitrile] | ≥ 7.30
Cn1ncc2cc(-c3c(-c4ccc(C#N)cc4)nc(OC[C@@H]4CCCN(CCO)C4)c4nccn34)ccc21 [Example 65, 4-[8-{[(3R)-1-(2-hydroxyethyl)piperidin-3-yl]methoxy}-5-(1-methyl-1H-indazol-5-yl)imidazo[1,2-a]pyrazin-6-yl]benzonitrile] | ≥ 7.30
CN(C)C1CCN(c2nc(-c3ccc(C#N)cc3)c(-c3ccc(N4CCOC4=O)nc3)n3ccnc23)CC1 [Example 67, 4-{8-[4-(dimethylamino)piperidin-1-yl]-5-[6-(2-oxo-1,3-oxazolidin-3-yl)pyridin-3-yl]imidazo[1,2-a]pyrazin-6-yl}benzonitrile] | ≥ 7.30
Cc1ccc(-c2c(-c3ccc(C#N)cc3)nc(CN3CC[C@H](N(C)C)C3)c3nccn23)cc1 [Example 4, 4-[8-{[(3S)-3-(dimethylamino)pyrrolidin-1-yl]methyl}-5-(4-methylphenyl)imidazo[1,2-a]pyrazin-6-yl]benzonitrile] | ≥ 7.30

From patent US10112950B2, “Substituted imidazo[1,2-a]pyrazines as LSD1 inhibitors” (Incyte Corporation, priority 2014, dated 2018)
